Here are results for three compounds from PMC4721923 (PLoS ONE, 2015).

Values joined by “and” are separate entries in the source; they are usually repeats but may differ in a detail not shown here. Equal values may be shown once. Read-outs that look alike come from different tables or passages of the source. A value given as a limit tells only on which side of the number the result lay.

In data set [1] the target is T1, OCT1 (Homo sapiens, UniProt O15245).
T1 construct: containing the full length SLC22A1 cDNA (NM_003057) encoding the human OCT1 protein; expressed in transfected cells
T1 sequence (O15245 1-554): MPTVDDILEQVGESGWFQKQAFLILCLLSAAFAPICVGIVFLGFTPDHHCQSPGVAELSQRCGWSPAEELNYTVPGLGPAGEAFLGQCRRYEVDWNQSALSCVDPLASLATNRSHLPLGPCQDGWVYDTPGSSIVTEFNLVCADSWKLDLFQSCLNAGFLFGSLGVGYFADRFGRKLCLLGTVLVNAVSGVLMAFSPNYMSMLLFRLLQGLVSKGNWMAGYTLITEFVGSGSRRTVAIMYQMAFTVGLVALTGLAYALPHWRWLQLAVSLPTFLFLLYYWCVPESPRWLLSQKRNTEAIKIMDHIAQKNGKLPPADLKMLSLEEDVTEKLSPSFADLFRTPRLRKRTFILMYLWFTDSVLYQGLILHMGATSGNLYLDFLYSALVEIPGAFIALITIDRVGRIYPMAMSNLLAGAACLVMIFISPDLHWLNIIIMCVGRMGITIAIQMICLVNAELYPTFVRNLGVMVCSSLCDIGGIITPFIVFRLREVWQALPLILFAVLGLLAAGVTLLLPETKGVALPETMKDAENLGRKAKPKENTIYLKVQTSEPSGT
The arrangement: method as in PMID 15389554. The note with it: microtiter assay; cited from earlier work.

Data set [2] concerns the target T1, OCT1. Nature of the data set: Flow cytometric ASP+-uptake inhibition, HEK-OCT1. In kind it is cell-based. The note with it: HEK-OCT1; 1 μM ASP+; ± SEM (N = 3); read-out: IC50, inhibition of ASP+-uptake. The protocol:
(§1) The previously described fluorescent substrate of organic cation transporters, 4-(4-dimethylaminostyryl)-N-methylpyridinium (ASP^+), was used to determine the function of OCT1 and OCT3 by flow cytometry in the absence and the presence of bendamustine and selected bendamustine esters. HEK293 cells expressing the transporter of interest were trypsinized and washed twice with PBS, prior to re-suspension of 0.5 · 10^6 cells in 500 μL of PBS containing 2% (v/v) FCS. The cells were incubated with ASP^+ (100 μM stock solution in PBS containing 10% DMSO) for 5 minutes, allowing for cellular accumulation, and subsequently analyzed with a FACSCalibur flow cytometer. ASP^+ was excited at 488 nm and the fluorescence was measured using a 530/30 nm and a 585/42 band-pass filter. At least 1 · 10^4 single cells were analyzed by appropriate FSC/SSC gating.
(§2) The cells were pre-incubated with the respective test compound at different concentrations at room temperature for 10 minutes. Afterwards, ASP^+ was added to a final concentration of 1 μM, and the samples were incubated at 37°C in the dark for 5 minutes. Subsequently, the cells were washed, re-suspended in ice-cold PBS/FCS and stored on ice in the dark until measurement.
(§3) The normalized mean fluorescence intensities of the OCT expressing cells, set to 100% in the absence of an inhibitor, were calculated by subtracting the mean fluorescence intensity of unspecific ASP^+ uptake into HEK-Co control cells. The normalized fluorescence intensities in the presence of an inhibitor were plotted against the logarithm of the concentrations of the test compounds to calculate IC50 values. The “log (inhibitor) vs. normalized response-variable slope” equation of GraphPad Prism 5.01 was used for this purpose.
(In general: Flow cytometry measures light scatter and fluorescence of single cells or particles in a stream.)

Data set [3] concerns the target T2, OCT3 (Homo sapiens, UniProt O75751).
T2 construct: expressed in transfected cells; host or cells: HEK293 (HEK-OCT3)
T2 sequence (O75751 1-556): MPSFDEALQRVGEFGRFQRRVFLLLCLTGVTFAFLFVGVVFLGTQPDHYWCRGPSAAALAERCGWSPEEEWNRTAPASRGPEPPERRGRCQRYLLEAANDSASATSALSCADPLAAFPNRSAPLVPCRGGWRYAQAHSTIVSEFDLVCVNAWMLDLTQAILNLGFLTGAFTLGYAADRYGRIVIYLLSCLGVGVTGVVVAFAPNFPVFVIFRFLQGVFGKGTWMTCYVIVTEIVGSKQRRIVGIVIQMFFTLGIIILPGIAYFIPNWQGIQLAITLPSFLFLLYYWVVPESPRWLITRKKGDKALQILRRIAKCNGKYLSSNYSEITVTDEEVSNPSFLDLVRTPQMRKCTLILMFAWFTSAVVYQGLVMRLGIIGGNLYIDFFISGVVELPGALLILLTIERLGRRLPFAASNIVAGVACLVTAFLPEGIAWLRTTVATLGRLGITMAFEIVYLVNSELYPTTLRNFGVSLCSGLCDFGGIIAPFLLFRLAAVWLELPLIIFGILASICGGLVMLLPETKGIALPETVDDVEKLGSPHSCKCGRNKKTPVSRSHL
Briefly: Confocal laser scanning microscopy of ASP+ uptake, HEK-OCT3. In kind it is cell-based. To be noted: compound 5 15 μM; TPA 200 μM; ASP+ 1 μM. The protocol:
(§4) HEK-Co, HEK-OCT1 and HEK-OCT3 cells were seeded into 8-well μ-Slides (Ibidi, Munich, Germany) (2 · 10^4 cells/well) and allowed to attach for 48 hours. Prior to the staining procedure, the medium was replaced by PBS and the DNA probe Draq5 (5 μM) (Biostatus, Shepshed, UK) was added to each well. […] Subsequently, ASP^+ was added to reach a concentration of 1 μM, and the cells were incubated for 5 minutes in the dark. Imaging was performed with an Axiovert 200 M confocal microscope coupled to a Zeiss LSM 510 scanning device (Carl Zeiss, Oberkochen, Germany) using a Plan-Apochromat 63x/1.40 oil immersion objective. Draq5 was excited at 633 nm and fluorescence was detected using a 650 nm long-pass filter, ASP^+ was excited at 488 nm and detected using a 565/35 nm band-pass filter.

Data set [4] deals with T1, OCT1. Briefly: Confocal laser scanning microscopy of ASP+ uptake, HEK-OCT1. To be noted: compound 5 15 μM; TPA 200 μM; ASP+ 1 μM. Format: cell-based. The protocol: as §4
Data set [5] relates to OCT3. The arrangement: method as in PMID 23982114. The note with it: microtiter assay; cited from earlier work.
The target of data set [6] is T2, OCT3. Nature of the data set: Flow cytometric ASP+-uptake inhibition, HEK-OCT3. The note with it: HEK-OCT3; 1 μM ASP+; ± SEM (N = 3); read-out: IC50, inhibition of ASP+-uptake. In kind it is cell-based. On the procedure:
as §1, §2, §3

Data set [7] has as its system OCT1. The note with it: cited from earlier work.
The test system of data set [8] is OCT3. The arrangement: method as in PMID 23506881. To be noted: cited from earlier work.

For orientation: IC50 means the concentration that inhibits the measured activity by half. Take `CCCCC[N+](CCCCC)(CCCCC)CCCCC` [TPA, tetrapentyl ammonium, reference compound]: the IC50 was 7.9 µM in data set [1]; 6.04 µM and 6 µM in data set [2]; 28 µM in data set [5]; 19.9 ± 2.2 µM in data set [6]. Further, the “effect on OCT3 activity (ASP+ uptake, imaging)” value in data set [3] is recorded as “inhibited”. In data set [4], the “effect on OCT1 activity (ASP+ uptake, imaging)” value was “inhibited”.

Regarding `N.N.[Cl][Pt][Cl]` [cisplatin], in data set [7], the IC50 is above 100 µM.

As to `O=C1c2c(O)ccc(O)c2C(=O)c2c(NCCNCCO)ccc(NCCNCCO)c21` [mitoxantrone], the IC50 in data set [8] is 440 µM.
